Results published in patent US9125857B2, “Method for producing a drug extract that contains hydroxystilbene” (priority 2005, dated 2015).

How the values were obtained:
[1] = Dissolving tests with ERr 731 dry extract in ethanol and glycerol; assay type: physicochemical; settings: for dissolved proportion, % of theory, Test B / content found in solution, Test B: 200 mg of dry extract in 50 ml of ethanol 30% R; for content found in solution, Test B / content found in solution, Test C / content found in solution, Test D / content found in solution, Test A: extract content 61.9% rhaponticin, 29.9% deoxyrhaponticin; for dissolved proportion, % of theory, Test C / content found in solution, Test C: 200 mg of dry extract in 50 ml of ethanol 50% R; for dissolved proportion, % of theory, Test D / content found in solution, Test D: 200 mg of dry extract in 50 ml of ethanol 86% R; for dissolved proportion, % of theory, Test A / content found in solution, Test A: 200 mg of dry extract in 50 ml of glycerol R
Protocol: Determination of Stilbenes by High-Pressure Liquid Chromatography (HPLC) in the Dry Extract from Rhapontic Rhubarb Root
50 mg of extract, mixed with 40 ml of a mixture of acetone and water (1:1) in an amber glass vessel, treated in an ultrasonic bath for 15 minutes and made up to 50 ml with the solvent mixture and then diluted 1:10 with the solvent mixture.
A high-pressure liquid chromatography (HPLC) is carried out on a portion of the solution obtained above, with the following system parameters:
For a quantitative determination, the respective peak areas are found and compared with the corresponding peak areas of a standard extract of known composition.
a) Dissolving Tests with ERr 731® in Ethanol and Glycerol:
Content of the extract: • 61.9% rhaponticin • 29.9% deoxyrphaponticin

[2] = pH-dependent solubility of rhaponticin in aqueous solutions; assay type: physicochemical
Excerpt: Use is made of this for its isolation. Since, besides other organic acids, the root in particular has a high content of oxalic acid (⅔ in water-soluble and ⅓ in bound form), this must be neutralized during the isolation in order to prevent the pH drifting into the acidic range and thus to inhibit premature precipitation of the rhaponticin. This is achieved by using calcium oxide. The latter is employed as quicklime solution with a pH of 12.4-12.6.

## COc1ccc(C=Cc2cc(O)cc(O[C@@H]3O[C@H](CO)[C@@H](O)[C@H](O)[C@H]3O)c2)cc1 [deoxyrhaponticin]
[1]
  dissolved proportion, % of theory, Test B: (84.2% of theory)
  content found in solution, Test B: 25.2% deoxyrhaponticin
  dissolved proportion, % of theory, Test C: (97.0% of theory)
  content found in solution, Test C: 29.0% deoxyrhaponticin
  dissolved proportion, % of theory, Test D: (98.7% of theory)
  content found in solution, Test D: 29.5% deoxyrhaponticin
  dissolved proportion, % of theory, Test A: (90.6% of theory)
  content found in solution, Test A: 27.1% deoxyrhaponticin

## COc1ccc(C=Cc2cc(O)cc(O[C@@H]3O[C@H](CO)[C@@H](O)[C@H](O)[C@H]3O)c2)cc1O [rhaponticin, 3,3′,5-Trihydroxy-4′-methoxystilbene-3-O-β-D-glucopyranoside]
[1]
  dissolved proportion, % of theory, Test B: (84.3% of theory)
  content found in solution, Test B: 52.2% rhaponticin
  dissolved proportion, % of theory, Test C: (95.0% of theory)
  content found in solution, Test C: 58.8% rhaponticin
  dissolved proportion, % of theory, Test D: (96.6% of theory)
  content found in solution, Test D: 59.8% rhaponticin
  dissolved proportion, % of theory, Test A: (89.0% of theory)
  content found in solution, Test A: 55.1% rhaponticin
[2]; acidic pH range (pH 3.4-3.6)
  solubility in aqueous solutions: precipitated
[2]; alkaline pH range
  solubility in aqueous solutions: readily soluble
